Results published in patent publication US9149475B2, “Protein kinase C inhibitors and uses thereof” (Rigel Pharmaceuticals, Inc., priority 2009, dated 2015).

tested on: Human primary T cells; test: IL-2 ELISA, human primary T cell, anti-CD3+CD28+ (whole cell assay); type: cell-based; conditions: Homo sapiens, T-cell, 24 h, human primary T cells stimulated with anti-CD3 + anti-CD28, 24 hours
Summary of the method: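 PBMC-derived T cells, pre-expanded on αCD3/αCD28 with IL-2 and then washed free of IL-2, were preincubated with compound for 1 hr at 37° C (100,000 cells/well). They were then stimulated on 1 μg/ml αCD3 plus 5 μg/ml αCD28 for 24 h, and supernatant IL-2 was measured by ELISA. The counter-assay used 0.5 ng/ml PMA plus 0.1 μM ionomycin instead.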

SMILES | IC50 [nM]
CC(C)N1CCC(Oc2ccc(Nc3ncc(F)c(NC4CC(C)(C)NC(C)(C)C4)n3)cc2OC(F)F)CC1 [Compound I-104, N2-(4-(1-isopropylpiperidin-4-yloxy)-3-(difluoromethoxy)phenyl)-5-fluoro-N4-(2,2,6,6-tetramethylpiperidin-4-yl)pyrimidine-2,4-diamine] | < 250
CC(C)N1CCC(Oc2ccc(Nc3ncc(F)c(NC4CC(C)(C)N(C)C(C)(C)C4)n3)cc2OC(F)F)CC1 [Compound I-105, N2-(4-(1-isopropylpiperidin-4-yloxy)-3-(difluoromethoxy)phenyl)-5-fluoro-N4-(1,2,2,6,6-pentamethylpiperidin-4-yl)pyrimidine-2,4-diamine] | < 250
CC1(C)CC(Nc2nc(Nc3cc(OC(F)F)cc(C(F)(F)F)c3)ncc2F)CC(C)(C)N1 [Compound I-106, N2-(3-(difluoromethoxy)-5-(trifluoromethyl)phenyl)-5-fluoro-N4-(2,2,6,6-tetramethylpiperidin-4-yl)pyrimidine-2,4-diamine] | 500 to 1000
CN1C(C)(C)CC(Nc2nc(Nc3cc(OC(F)F)cc(C(F)(F)F)c3)ncc2F)CC1(C)C [Compound I-107, N2-(3-(difluoromethoxy)-5-(trifluoromethyl)phenyl)-5-fluoro-N4-(1,2,2,6,6-pentamethylpiperidin-4-yl)pyrimidine-2,4-diamine] | 250 to 500
CCOc1ccc(Nc2ncc(F)c(NC3CC(C)(C)NC(C)(C)C3)n2)cc1OC(F)F [Compound I-108, N2-(3-(difluoromethoxy)-4-ethoxyphenyl)-5-fluoro-N4-(2,2,6,6-tetramethylpiperidin-4-yl)pyrimidine-2,4-diamine] | < 250
CCOc1ccc(Nc2ncc(F)c(NC3CC(C)(C)N(C)C(C)(C)C3)n2)cc1OC(F)F [Compound I-109, N2-(3-(difluoromethoxy)-4-ethoxyphenyl)-5-fluoro-N4-(1,2,2,6,6-pentamethylpiperidin-4-yl)pyrimidine-2,4-diamine] | < 250
COc1cc(NC(C)=O)cc(Nc2ncc(F)c(NC3CC(C)(C)N(C)C(C)(C)C3)n2)c1 [Compound I-110, N2-(3-Acetylamino-5-methoxyphenyl)-5-fluoro-N4-(1,2,2,6,6-pentamethylpiperidin-4-yl)-2,4-pyrimidinediamine] | 500 to 1000
Cc1nnnn1-c1cc(Nc2ncc(F)c(NC3CC(C)(C)N(C)C(C)(C)C3)n2)cnc1O [Compound I-112, 5-(4-(1,2,2,6,6-pentamethylpiperidin-4-ylamino)-5-fluoropyrimidin-2-ylamino)-3-(5-methyl-1H-tetrazol-1-yl)pyridin-2-ol] | > 1000
Cc1nnnn1-c1cc(Nc2ncc(F)c(NC3CC(C)(C)N(C)C(C)(C)C3)n2)cnc1OC(C)C [Compound I-113, 5-fluoro-N2-(6-isopropoxy-5-(5-methyl-1H-tetrazol-1-yl)pyridin-3-yl)-N4-(1,2,2,6,6-pentamethylpiperidin-4-yl)pyrimidine-2,4-diamine] | < 250
Cc1nnnn1-c1cc(Nc2ncc(F)c(NC3CC(C)(C)NC(C)(C)C3)n2)cnc1OC(C)C [Compound I-114, 5-fluoro-N2-(6-isopropoxy-5-(5-methyl-1H-tetrazol-1-yl)pyridin-3-yl)-N4-(2,2,6,6-tetramethylpiperidin-4-yl)pyrimidine-2,4-diamine] | < 250
Cc1ccc(C)n1-c1cc(Nc2ncc(F)c(NC3CC(C)(C)N(C)C(C)(C)C3)n2)cnc1OC(C)C [Compound I-115, 5-fluoro-N2-(6-isopropoxy-5-(2,5-dimethyl-1H-pyrrol-1-yl)pyridin-3-yl)-N4-(1,2,2,6,6-pentamethylpiperidin-4-yl)pyrimidine-2,4-diamine] | 500 to 1000
Cc1ccc(C)n1-c1cc(Nc2ncc(F)c(NC3CC(C)(C)NC(C)(C)C3)n2)cnc1OC(C)C [Compound I-116, 5-fluoro-N2-(6-isopropoxy-5-(2,5-dimethyl-1H-pyrrol-1-yl)pyridin-3-yl)-N4-(2,2,6,6-tetramethylpiperidin-4-yl)pyrimidine-2,4-diamine] | 500 to 1000

same assay, conditions: human primary T cells stimulated with anti-CD3 + anti-CD28, 24 hours

SMILES | IC50 [nM]
CC1(C)CC(Nc2nc(Nc3ccc(F)c(-n4cnnn4)c3)ncc2C#N)CC(C)(C)N1 [Compound I-77, 5-cyano-N2-[4-fluoro-3-(1H-tetrazol-1-yl)]phenyl-N4-(2,2,6,6-tetramethylpiperidin-4-yl)-2,4-pyrimidinediamine] | 250 to 500
CN1C(C)(C)CC(Nc2nc(Nc3cccc(-n4nnnc4SCC(F)(F)F)c3)ncc2C#N)CC1(C)C [Compound I-78, 5-cyano-N4-(1,2,2,6,6-pentamethylpiperidin-4-yl)-N2-{3-[5-(2,2,2-trifluoroethyl)thio]-1H-tetrazol-1-yl}phenyl-2,4-pyrimidinediamine] | < 250
CC1(C)CC(Nc2nc(Nc3cccc(-n4nnnc4SCC(F)(F)F)c3)ncc2C#N)CC(C)(C)N1 [Compound I-79, 5-cyano-N4-(2,2,6,6-tetramethylpiperidin-4-yl)-N2-{3-[5-(2,2,2-trifluoroethyl)thio]-1H-tetrazol-1-yl}phenyl-2,4-pyrimidinediamine] | < 250
CCCc1nnnn1-c1cc(Nc2ncc(C#N)c(NC3CC(C)(C)N(C)C(C)(C)C3)n2)ccc1OC [Compound I-80, 5-cyano-N2-[4-methoxy-3-(5-propyl-1H-tetrazol-1-yl)]phenyl-N4-(1,2,2,6,6-pentamethylpiperidin-4-yl)-2,4-pyrimidinediamine] | < 250
CCCc1nnnn1-c1cc(Nc2ncc(C#N)c(NC3CC(C)(C)NC(C)(C)C3)n2)ccc1OC [Compound I-81, 5-cyano-N2-[4-methoxy-3-(5-propyl-1H-tetrazol-1-yl)]phenyl-N4-(2,2,6,6-tetramethylpiperidin-4-yl)-2,4-pyrimidinediamine] | 250 to 500
CCc1nnnn1-c1cc(Nc2ncc(C(N)=O)c(NC3CC(C)(C)NC(C)(C)C3)n2)ccc1OC(F)F [Compound I-83, 5-aminocarbonyl-N2-[4-difluoromethoxy-3-(5-ethyl-1H-tetrazol-1-yl)]phenyl-N4-(2,2,6,6-tetramethylpiperidin-4-yl)-2,4-pyrimidinediamine] | > 1000
CCc1nnnn1-c1cc(Nc2ncc(C#N)c(NC3CC(C)(C)NC(C)(C)C3)n2)ccc1OC(F)F [Compound I-84, 5-cyano-N2-[4-difluoromethoxy-3-(5-ethyl-1H-tetrazol-1-yl)]phenyl-N4-(2,2,6,6-tetramethylpiperidin-4-yl)-2,4-pyrimidinediamine] | > 1000
CC1(C)CC(Nc2nc(Nc3cccc(-c4nnn[nH]4)c3)ncc2C#N)CC(C)(C)N1 [Compound I-85, 5-Cyano-N4-(2,2,6,6-tetramethylpiperidin-4-yl)-N2-[3-(tetrazol-5-yl)]phenyl-2,4-pyrimidinediamine] | > 1000
CC(C)n1nnnc1-c1cccc(Nc2ncc(C#N)c(NC3CC(C)(C)N(C)C(C)(C)C3)n2)c1 [Compound I-88, 5-Cyano-N2-{3-[1-N-isopropyl-(tetrazol-5-yl)]}phenyl-N4-(1,2,2,6,6-pentamethylpiperidin-4-yl)-2,4-pyrimidinediamine] | < 250
COc1ccc(Nc2ncc(F)c(NC3CC(C)(C)NC(C)(C)C3)n2)cc1-n1c(C)ccc1C [Compound I-93, N2-[3-(2,5-Dimethyl-pyrrol-1-yl)-4-methoxy]phenyl-5-fluoro-N4-(2,2,6,6-tetramethylpiperidin-4-yl)-2,4-pyrimidinediamine] | < 250
CN1C(C)(C)CC(Nc2nc(Nc3cccc(-c4nnnn4C4CC4)c3)ncc2C#N)CC1(C)C [Compound I-94, 5-Cyano-N2-{3-[1-N-cyclopropyl-(tetrazol-5-yl)]}phenyl-N4-(1,2,2,6,6-pentamethylpiperidin-4-yl)-2,4-pyrimidinediamine] | < 250
CC1(C)CC(Nc2nc(Nc3cccc(-c4nnnn4C4CC4)c3)ncc2C#N)CC(C)(C)N1 [Compound I-95, 5-Cyano-N2-{3-[1-N-cyclopropyl-(tetrazol-5-yl)]}phenyl-N4-(2,2,6,6-tetramethylpiperidin-4-yl)-2,4-pyrimidinediamine] | 250 to 500
CN1C(C)(C)CC(Nc2nc(Nc3cccc(-c4nnnn4CCF)c3)ncc2C#N)CC1(C)C [Compound I-96, 5-Cyano-N2-{3-[1-N-(2-fluoroethyl)-(tetrazol-5-yl)]}phenyl-N4-(1,2,2,6,6-pentamethylpiperidin-4-yl)-2,4-pyrimidinediamine] | < 250
CC1(C)CC(Nc2nc(Nc3cccc(-c4nnnn4CCF)c3)ncc2C#N)CC(C)(C)N1 [Compound I-97, 5-Cyano-N2-{3-[1-N-(2-fluoroethyl)-(tetrazol-5-yl)]}phenyl-N4-(2,2,6,6-tetramethylpiperidin-4-yl)-2,4-pyrimidinediamine] | > 1000
Cc1ccc(C)n1-c1cc(Nc2ncc(F)c(NC3CC(C)(C)N(C)C(C)(C)C3)n2)ccc1F [Compound I-100, N2-[3-(2,5-Dimethyl-pyrrol-1-yl)-4-fluoro]phenyl-5-fluoro-N4-(1,2,2,6,6-pentamethylpiperidin-4-yl)-2,4-pyrimidinediamine] | < 250
Cc1ccc(C)n1-c1cc(Nc2ncc(F)c(NC3CC(C)(C)NC(C)(C)C3)n2)ccc1F [Compound I-101, N2-[3-(2,5-Dimethyl-pyrrol-1-yl)-4-fluoro]phenyl-5-fluoro-N4-(2,2,6,6-tetramethylpiperidin-4-yl)-2,4-pyrimidinediamine] | 250 to 500
Cc1ccc(C)n1-c1cc(Nc2ncc(F)c(NC3CC(C)(C)N(C)C(C)(C)C3)n2)ccc1C#N [Compound I-102, N2-[4-Cyano-3-(2,5-dimethyl-pyrrol-1-yl)]phenyl-5-fluoro-N4-(1,2,2,6,6-pentamethylpiperidin-4-yl)-2,4-pyrimidinediamine] | 250 to 500
Cc1ccc(C)n1-c1cc(Nc2ncc(F)c(NC3CC(C)(C)N(C)C(C)(C)C3)n2)ccc1OC(=O)NC(C)C [Compound I-103, N2-[3-(2,5-Dimethyl-pyrrol-1-yl)-4-(isopropylaminocarboxyloxy)]phenyl-5-fluoro-N4-(1,2,2,6,6-pentamethylpiperidin-4-yl)-2,4-pyrimidinediamine] | 500 to 1000
